Test results published in US10532986B2, “Cyclic compound acting as PDE4 inhibitor” (MEDSHINE DISCOVERY INC., priority 2016, dated 2020).

Target: T1, Recombinant human PDE4B (Homo sapiens, UniProt Q07343)
T1 construct: amino acid 305-end; GST (N); made in house; host or cells: Sf9 insect cells (baculovirus)
Assay: Inhibitory activity of the compounds against PDE 4B (fluorescence polarization, Transcreener AMP2/GMP2)
Assay type: biochemical
Details: recombinant human PDE4B (aa 305-end, GST tag); 1 μM cAMP; 1 hour at room temperature
Experimental: Inhibitory activity of the compounds against PDE 4B
The assay is based on the fluorescence polarization measuring AMP/GMP production as a result of the enzyme activity by displacement of Tracer binding to the AMP/GMP antibody.
10 mM Tris-HCl (pH 7.5), 5 mM MgCl2, 0.01% Brij 35, 1 mM DTT and 1% DMSO.
Recombinant human PDE4B (Gene accession number: NM_002600; amino acid 305-end) was expressed by baculovirus in Sf9 insect cells using an N-terminal GST tag. MW=78 kDa.
Transcreener® AMP^2/GMP^2 antibody and AMP^2/GMP^2 AlexaFluor 633 tracer
i) Recombinant human PDE4B and the enzyme substrate (1 μM cAMP) were dissolved in the newly-prepared buffer solution, respectively.
ii) The PDE4B buffer solution defined as above was transferred into the reaction wells.
iii) The compound which was dissolved in 100% DMSO was added to the reaction wells of the PDE4B buffer solution by Acoustic technology (Echo550; nanoliter range) and incubated at room temperature for 10 minutes.
iv) The enzymatic buffer solution was then added to the reaction wells defined as above to initiate the reaction.
v) The reaction was incubated at room temperature for 1 hour.
vi) The reaction was terminated by adding detecting mixture (Transcreener® AMP^2/GMP^2 antibody and AMP^2/GMP^2 AlexaFluor 633 tracer) and incubated for 90 minutes with gentle mixing. The measurement range of fluorescence polarization is Ex/Em=620/688.
The fluorescence polarization signal was converted into nM based on the AMP/GMP standard curve and the percent enzyme activity relative to DMSO calculated by Excel. GraphPad Prism was used to plot the curves (Drawing Medicine Icon)

T1 sequence (Q07343 305-736 limits assumed): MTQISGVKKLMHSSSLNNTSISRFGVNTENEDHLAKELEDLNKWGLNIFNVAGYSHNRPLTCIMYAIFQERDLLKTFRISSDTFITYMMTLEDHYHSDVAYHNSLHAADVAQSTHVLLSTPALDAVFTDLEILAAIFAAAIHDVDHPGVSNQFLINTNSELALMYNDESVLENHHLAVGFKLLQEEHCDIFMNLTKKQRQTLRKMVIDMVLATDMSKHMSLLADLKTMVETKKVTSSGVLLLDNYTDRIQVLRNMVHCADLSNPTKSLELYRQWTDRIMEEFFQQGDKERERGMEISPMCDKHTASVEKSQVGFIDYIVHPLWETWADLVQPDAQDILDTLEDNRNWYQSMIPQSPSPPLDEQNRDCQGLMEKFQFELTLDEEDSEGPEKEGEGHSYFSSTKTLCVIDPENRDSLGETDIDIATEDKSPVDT

| IC50 [nM] | SMILES |
| --- | --- |
| 3.68 | CCOc1cc([C@@H](CS(C)(=O)=O)n2c(=O)[nH]c3cc(Br)cc(F)c32)ccc1OC [WX001] |
| 6.27 | CCOc1cc([C@@H](CS(C)(=O)=O)n2c(=O)[nH]c3cc(C(F)(F)F)ccc32)ccc1OC [WX002] |
| 2.22 | CCOc1cc([C@@H](CS(C)(=O)=O)n2c(=O)[nH]c3cc(Cl)ccc32)ccc1OC [WX003] |
| 11.5 | CCOc1cc([C@@H](CS(C)(=O)=O)n2c(=O)[nH]c3cc(F)ccc32)ccc1OC [WX004] |
| 92.4 | CCOc1cc([C@@H](CS(C)(=O)=O)n2c(=O)[nH]c3cc(F)cc(F)c32)ccc1OC [WX005] |
| 25.7 | CCOc1cc([C@@H](CS(C)(=O)=O)n2c(=O)[nH]c3cc(C(F)(F)F)cc(F)c32)ccc1OC [WX006] |
| 9.2 | CCOc1cc([C@@H](CS(C)(=O)=O)n2c(=O)[nH]c3c(Br)cccc32)ccc1OC [WX007] |
| 22.3 | CCOc1cc([C@@H](CS(C)(=O)=O)n2c(=O)[nH]c3c(Cl)cccc32)ccc1OC [WX008] |
| 6.29 | CCOc1cc([C@@H](CS(C)(=O)=O)n2c(=O)[nH]c3cc(Br)ccc32)ccc1OC [WX009] |
| 19.5 | CCOc1cc([C@@H](CS(C)(=O)=O)n2c(=O)[nH]c3ccccc32)ccc1OC [WX010] |
| 0.526 | CCOc1cc([C@@H](CS(C)(=O)=O)n2c(=O)[nH]c3cc(-c4ccccc4F)ccc32)ccc1OC [WX011] |
| 2.18 | CCOc1cc([C@@H](CS(C)(=O)=O)n2c(=O)[nH]c3cc(-c4cccc(F)c4)ccc32)ccc1OC [WX012] |
| 6.11 | CCOc1cc([C@@H](CS(C)(=O)=O)n2c(=O)[nH]c3cc(-c4ccc(F)cc4)ccc32)ccc1OC [WX013] |
| 0.606 | CCOc1cc([C@@H](CS(C)(=O)=O)n2c(=O)[nH]c3cc(-c4ccccc4C)ccc32)ccc1OC [WX014] |
| 0.676 | CCOc1cc([C@@H](CS(C)(=O)=O)n2c(=O)[nH]c3cc(-c4ccccc4Cl)ccc32)ccc1OC [WX015] |
| < 0.5 | CCOc1cc([C@@H](CS(C)(=O)=O)n2c(=O)[nH]c3cc(-c4ccccc4OC)ccc32)ccc1OC [WX016] |
| < 0.5 | CCOc1cc([C@@H](CS(C)(=O)=O)n2c(=O)[nH]c3cc(-c4ccccc4C(F)(F)F)ccc32)ccc1OC [WX017] |
| < 0.5 | CCOc1cc([C@@H](CS(C)(=O)=O)n2c(=O)[nH]c3cc(-c4ccccc4C(C)C)ccc32)ccc1OC [WX018] |
| < 0.5 | CCOc1cc([C@@H](CS(C)(=O)=O)n2c(=O)[nH]c3cc(-c4ccccc4CC)ccc32)ccc1OC [WX019] |
| 12.6 | CCOc1cc([C@@H](CS(C)(=O)=O)n2c(=O)n(C3CC3)c3cc(Cl)ccc32)ccc1OC [WX020] |
| 64.4 | CCOc1cc([C@@H](CS(C)(=O)=O)n2c(=O)n(C3CC3)c3cc(F)ccc32)ccc1OC [WX021] |
| 39.5 | CCOc1cc([C@@H](CS(C)(=O)=O)n2c(=O)n(C3CC3)c3cc(C(F)(F)F)ccc32)ccc1OC [WX022] |
| 1.89 | CCOc1cc([C@@H](CS(C)(=O)=O)n2c(=O)n(C3CC3)c3cc(-c4ccccc4F)ccc32)ccc1OC [WX023] |
| < 0.5 | CCOc1cc([C@@H](CS(C)(=O)=O)n2c(=O)[nH]c3cc(-c4ccccc4OCC)ccc32)ccc1OC [WX024] |
| 1.42 | CCOc1cc([C@@H](CS(C)(=O)=O)n2c(=O)[nH]c3cc(-c4ncccc4F)ccc32)ccc1OC [WX025] |
| 8.44 | CCOc1cc([C@@H](CS(C)(=O)=O)n2c(=O)[nH]c3cc(-c4nccnc4C)ccc32)ccc1OC [WX026] |
| 17.8 | CCOc1cc([C@@H](CS(C)(=O)=O)n2c(=O)[nH]c3cc(-c4nnccc4C)ccc32)ccc1OC [WX027] |
| < 0.5 | CCOc1cc([C@@H](CS(C)(=O)=O)n2c(=O)[nH]c3cc(-c4ccccc4C#N)ccc32)ccc1OC [WX028] |

| IC50 [nM] | SMILES |
| --- | --- |
| < 0.5 | CCOc1cc([C@@H](CS(C)(=O)=O)n2c(=O)[nH]c3cc(-c4nccnc4N(C)C)ccc32)ccc1OC [WX029] |
| 1.31 | CCOc1cc([C@@H](CS(C)(=O)=O)n2c(=O)[nH]c3cc(-c4nccnc4C4CC4)ccc32)ccc1OC [WX030] |
| 3.3 | CCOC(=O)c1ccc2c(c1)[nH]c(=O)n2[C@H](CS(C)(=O)=O)c1ccc(OC)c(OCC)c1 [WX031] |
| 2.05 | CCOc1cc([C@@H](CS(C)(=O)=O)n2c(=O)[nH]c3cc(C(=O)OC(C)C)ccc32)ccc1OC [WX032] |
| 1.1 | CCOc1cc([C@@H](CS(C)(=O)=O)n2c(=O)[nH]c3cc(C(=O)OCC(F)(F)F)ccc32)ccc1OC [WX033] |
| 22.4 | CCOc1cc([C@@H](CS(C)(=O)=O)n2c(=O)[nH]c3cc(C(=O)O)ccc32)ccc1OC [WX034] |
| 8.3 | CCOc1cc([C@@H](CS(C)(=O)=O)n2c(=O)[nH]c3cc(C(=O)CC)ccc32)ccc1OC [WX035] |
| 9.12 | CCOc1cc([C@@H](CS(C)(=O)=O)n2c(=O)n(CC(F)F)c3cc(Cl)ccc32)ccc1OC [WX036] |
| 10.8 | CCOc1cc([C@@H](CS(C)(=O)=O)n2c(=O)n(CC(F)(F)F)c3cc(Cl)ccc32)ccc1OC [WX037] |
| 7.99 | CCOc1cc([C@@H](CS(C)(=O)=O)n2c(=O)n(C)c3cc(Cl)ccc32)ccc1OC [WX038] |
| 9.96 | CCOc1cc([C@@H](CS(C)(=O)=O)n2c(=O)n(CC)c3cc(Cl)ccc32)ccc1OC [WX039] |
| 7.54 | CCOc1cc([C@@H](CS(C)(=O)=O)n2c(=O)n(CC3CC3)c3cc(Cl)ccc32)ccc1OC [WX040] |
| 11.9 | CCOc1cc([C@@H](CS(C)(=O)=O)n2c(=O)n(CC3CCC3)c3cc(Cl)ccc32)ccc1OC [WX041] |
| 6.83 | CCOc1cc([C@@H](CS(C)(=O)=O)n2c(=O)n(CCOC)c3cc(Cl)ccc32)ccc1OC [WX042] |
| 4.5 | CCOc1cc([C@@H](CS(C)(=O)=O)n2c(=O)n(CCO)c3cc(Cl)ccc32)ccc1OC [WX043] |
| 5.12 | CCOc1cc([C@@H](CS(C)(=O)=O)n2c(=O)n(C(C)C)c3cc(Cl)ccc32)ccc1OC [WX044] |
| 3.56 | CCOc1cc([C@@H](CS(C)(=O)=O)n2c(=O)n(CC#N)c3cc(Cl)ccc32)ccc1OC [WX045] |
| 10.1 | CCOc1cc([C@@H](CS(C)(=O)=O)n2c(=O)n(CC(F)F)c3cc(F)ccc32)ccc1OC [WX046] |
| 44.9 | CCOc1cc([C@@H](CS(C)(=O)=O)n2c(=O)n(CC(F)(F)F)c3cc(F)ccc32)ccc1OC [WX047] |
| 57.8 | CCOc1cc([C@@H](CS(C)(=O)=O)n2c(=O)n(C)c3cc(F)ccc32)ccc1OC [WX048] |
| 11.4 | CCOc1cc([C@@H](CS(C)(=O)=O)n2c(=O)n(CC#N)c3cc(F)ccc32)ccc1OC [WX049] |
| 30.6 | CCOc1cc([C@@H](CS(C)(=O)=O)n2c(=O)n(CCO)c3cc(F)ccc32)ccc1OC [WX050] |
| 26.9 | CCOc1cc([C@@H](CS(C)(=O)=O)n2c(=O)n(CC(F)F)c3cc(C(F)(F)F)ccc32)ccc1OC [WX051] |
| 13.7 | CCOc1cc([C@@H](CS(C)(=O)=O)n2c(=O)n(CC(F)(F)F)c3cc(C(F)(F)F)ccc32)ccc1OC [WX052] |
| 26.4 | CCOc1cc([C@@H](CS(C)(=O)=O)n2c(=O)n(C)c3cc(C(F)(F)F)ccc32)ccc1OC [WX053] |
| 13.2 | CCOc1cc([C@@H](CS(C)(=O)=O)n2c(=O)n(CC)c3cc(C(F)(F)F)ccc32)ccc1OC [WX054] |
| 21.2 | CCOc1cc([C@@H](CS(C)(=O)=O)n2c(=O)n(CC#N)c3cc(C(F)(F)F)ccc32)ccc1OC [WX055] |
